Blank lines part the entries; values can stand above or below the compound they belong to.
Experiments:
[1] = test system: mouse fibroblasts cells L-929; conditions: alone or in mixtures at the concentrations found in PD fluids; cited from earlier work
[2] = test system: mouse fibroblasts cells L-929; test: In vitro assay for cytotoxicity: inhibition of cell growth (ICG); assay type: cell-based
Procedure: Carbohydrate containing medical solutions used for peritoneal dialysis were mixed with 1 part of a cell growth medium and 10% (volume/volume) fetal calf serum was added (Wieslander et al., 1991, Kidney Int. 40:77-79). The basal cytotoxicity of the medical solution used for peritoneal dialysis was determined on mouse fibroblasts cells L-929 (CCL-1; ATTC, Rockville, Md., USA) as described earlier (Wieslander et al. 1993, Advances in Peritoneal Dialys, 9:31-35) and expressed as inhibition of cell growth (ICG).
Mouse fibroblast cells (L-929) were grown and incubated according to Järkelid et al., 2000, ATLA 28, 415-425. Inhibition of cell growth was determined for a 4% PD fluid with the following composition
Additionally dose response curves were made in MEM (Minimal Essential Medium).
The results from incubation of L-929 cells with synthetic 3,4-dideoxy-glucosone-3-ene added in MEM are presented in table 1 below showing the values plotted in FIG. 5. The 4% PD solution was autoclaved while the PD fluid was sterile filtered. The PD solutions were tested twice (% ICG1 and % ICG2) and the mean ICG was calculated.

[3] = Biological effects of 3,4-dideoxy-glucosone-3-ene (test not specified)

Compound: CC=O [acetaldehyde]
- toxicity in the L-929 system [1]: None of these five listed compounds show toxicity

Compound: C=O [formaldehyde]
- toxicity in the L-929 system [1]: None of these five listed compounds show toxicity

Compound: O=CC(=O)C[C@H](O)[C@H](O)CO [3-deoxyglucosone]
- toxicity in the L-929 system [1]: None of these five listed compounds show toxicity

- concentration below which no biological effects seem to be present [3]: < 2 μM
Compound: 3,4-dideoxy-glucosone-3-ene [3,4-DGE]
- % ICG1 ([2]; 5 μM 3,4-DGE in MEM): 24%
- % ICG2 ([2]; 5 μM 3,4-DGE in MEM): 12%
- % ICG3 ([2]; 5 μM 3,4-DGE in MEM): 31%
- mean % ICG ([2]; 5 μM 3,4-DGE in MEM): 21,5%
- % ICG1 ([2]; 15 μM 3,4-DGE in MEM): 47%
- % ICG2 ([2]; 15 μM 3,4-DGE in MEM): 49%
- % ICG3 ([2]; 15 μM 3,4-DGE in MEM): 44%
- mean % ICG ([2]; 15 μM 3,4-DGE in MEM): 46,5%
- % ICG1 ([2]; 52 μM 3,4-DGE in MEM): 92%
- % ICG2 ([2]; 52 μM 3,4-DGE in MEM): 80%
- % ICG3 ([2]; 52 μM 3,4-DGE in MEM): 88%
- mean % ICG ([2]; 52 μM 3,4-DGE in MEM): 84%
- % ICG2 ([2]; 2,5 μM 3,4-DGE in MEM): 5%
- % ICG3 ([2]; 2,5 μM 3,4-DGE in MEM): 20%
- mean % ICG ([2]; 2,5 μM 3,4-DGE in MEM): 12,5%
- % ICG1 ([2]; 10,4 μM 3,4-DGE in MEM): 36%
- % ICG2 ([2]; 10,4 μM 3,4-DGE in MEM): 51%
- % ICG3 ([2]; 10,4 μM 3,4-DGE in MEM): 42%
- mean % ICG ([2]; 10,4 μM 3,4-DGE in MEM): 46,5%
- % ICG1 ([2]; 24,3 μM 3,4-DGE in MEM): 63%
- % ICG2 ([2]; 24,3 μM 3,4-DGE in MEM): 65%
- % ICG3 ([2]; 24,3 μM 3,4-DGE in MEM): 58%
- mean % ICG ([2]; 24,3 μM 3,4-DGE in MEM): 61,5%
- EC50 ([2]; dose response curves in MEM, L-929 cells): 16 µM
- toxicity in cytotoxicity test ([2]; fibroblast cells): toxic to fibroblast cells

Compound: O=CC=O [glyoxal]
- toxicity in the L-929 system [1]: None of these five listed compounds show toxicity
